One data set concerns Ts65Dn mice. As to conditions: cited from earlier work; for contextual learning: earlier studies.
The nature of a further data set: physchem. As to conditions: water.
Data set [1] deals with Ts65Dn and 2N mice. The data set can be described thus: Cardiovascular and respiratory system monitoring (MouseOx vital signs). The format is in vivo, mouse. To be noted: 2N and Ts65Dn mice.
Description: Cardiovascular and Respiratory System Monitoring. […] The monitor was attached to a collar clip with an LED sensor to enable recordings in free-moving mice. To minimize stress before recording, the collar clip was attached to each animal. After five minutes, heart rate, respiratory rate, and oxygen saturation were recorded using MOUSEOX® 6.3.13 for 10 minutes.
In data set [2] the test system is Ts65Dn and 2N mice. Here is the method: b) Fear Conditioning. […] The fear conditioning tests were done using four FreezeScan chambers (Clever Sys) on days 4 and 5 after the start of the open field-testing. […] Four hours later, the mice were placed in the fear-conditioning chamber and their baseline activity was recorded for three minutes. At the end of this period, each mouse was exposed to five shocks (2 seconds each, 0.5 mA) with inter-trial intervals of 80 seconds. Twenty-four hours later, the mice were injected again, similar to the Training Day, and returned to the same fear-conditioning chamber for five minutes and their activity was recorded. Freezing was defined as a lack of movement for 3 frames.

For data set [3] the following is noted: in vivo; cited from earlier work.
Data set [4] has as its system Ts65Dn and 2N mice. As to conditions: intranasal 2 mg per kg for 5 days.
Excerpt: Mice were acclimated to handling for a period of two weeks before the onset of intranasal dosing. Acclimation helped to ensure a correct body position for maximum effectiveness of awake intranasal drug delivery. In addition, acclimation prevented the occurrence of anxiety reaction after dosing. Mice spent about 2-3 days on each of nine steps before progressing to the next step, depending upon the animal's comfort to handling. The mouse's stress level was used as a measure of progress. To do this, the mouse's movements, the amount and frequency of urination, defecation, trembling and biting were assessed.
7) The mouse was placed back on top of his cage for 2 min. and the entire process was repeated starting 2 min. after delivery of the first drop. All together the mouse received four drops of up to 6 μl each totaling a maximum volume of 24 μl of solution.
The training began on the 4th day of intranasal dosing.
The testing day was done on the 5th and final day of dosing.
The first trial for each mouse was done 3 hours post-intranasal dose.
6) The number of incorrect arm entries was quantified. Entries into the goal arm were not counted as errors, even if the platform was not located. An entry was considered to occur when all four legs of the mouse had entered the alley completely and the mouse was parallel to the alley walls. […]
The subject of data set [5] is Ts65Dn and 2N mice. The experiment in a line: BrdU cell proliferation count in the DG. The format is in vivo, mouse. To be noted: nadolol alone or nadolol + formoterol. On the procedure:
To identify proliferating cells, we used 5-bromo-2′-deoxyuridine (BrdU, Sigma). It was dissolved in PBS, filtered, and kept at 4° C. till use. After 15 days of treatment, each mouse was injected IP daily (50 mg/kg) with BrdU solution for 5 days. Thereafter, on day 21, all mice were anesthetized and transcardially perfused with ice-cold saline. The entire brain was immediately removed and the two hemispheres were separated. The left hemisphere was fixed overnight, cut, and stored. […] This was followed by incubation of sections in ABC.
Stereo-Investigator (MBF) was used to quantify the total number of BrdU-positive cells in the entire septo-temporal extent of DG. Following the outlining of the DG area at 4×, each positive profile was identified using a 100× oil objective. […] A Nanozoomer system (Hamamatsu 2.0 RS) was used to capture images of the entire slide in each case. High magnification images were captured using the Nanozoomer and stored.

Molecules are shown by their SMILES. ≈ marks a conversion by molar mass, not a printed value. Like-named read-outs stand apart in the source and are kept apart here.

Consider `N[C@H](C(=O)O)[C@H](O)c1ccc(O)c(O)c1` [L-DOPS, L-threo-3,4-dihydroxyphenylserine], for which the contextual learning result in the data set with Ts65Dn mice is “restored”.
For the molecule `COc1ccc(CC(C)NCC(O)c2ccc(O)c(NC=O)c2)cc1` (stereo not shown) [formoterol], in the data set “physchem”, the solubility is about 17.2 mg/mL (≈ 49.9 mM). In addition, the “effect on oxygen saturation” value with Ts65Dn and 2N mice [1] (formoterol together with nadolol) is “no significant effects”. Besides, in the data set on Ts65Dn and 2N mice [1] (ANOVA treatment effect), the “effect on heart rate” value was “No significant effects” and the “effect on respiratory rate” value was “No significant effects”. The contextual learning entry in the data set on Ts65Dn and 2N mice [2] (2N mice) is reported as “improvement”. Moreover, the contextual learning entry in the data set with Ts65Dn and 2N mice [2] (Ts65Dn mice, 6 months, vs nadolol only) was “significant improvement”. The “freezing behavior within first five minutes in context” value in the data set on Ts65Dn and 2N mice [2] (Ts65Dn mice, vs nadolol only) is “significant increase”. The “crossing of the blood brain barrier” value in data set [3] is recorded as “cross the blood brain barrier”. Also, in the data set on Ts65Dn and 2N mice [4], the spatial learning entry is given as “significant improvement”.
Turning to `CC(C)(C)NCC(O)COc1cccc2c1CC(O)C(O)C2` (stereo not shown) [nadolol], in the data set on Ts65Dn and 2N mice [5], the “total number of BrdU-positive profiles in the DG” value is recorded as 3,161.930±900.
For `O=C(NCCNCC(O)COc1ccc(O)cc1)N1CCOCC1` (stereo not shown) [xamoterol], the contextual learning result in the data set with Ts65Dn mice is listed as “significantly improve”. Further, in the data set on Ts65Dn mice (later studies), the “spatial learning and/or hyperactivity” value is on record as “did not improve”.

As a reminder, the solubility is the concentration that dissolves in the medium under given conditions. Read a high solubility as much dissolved substance.

The values are drawn from US9889087B2, “Intranasal delivery of β2-adrenergic receptor agonists for improving cognition in humans with down syndrome and compositions therefor” (priority 2014, dated 2018).
